Earlier results, collected in patent US20150111372A1 (priority 2013, published 2015).
Like-named read-outs stand apart in the source and are kept apart here.

Experiments:
livers of chickens = conditions: in vivo

Row | Structure (SMILES) | Solubility, Water (pH 2) | Solubility, Water (pH 5) | levels of arsenic in the livers of chickens (livers of chickens)
1 | O=C(O)CNCP(=O)(O)O [N-(phosphonomethyl)glycine), N-(phosphonomethyl)glycine] | pH 2: 10 g/L | pH 5-9: 1 kg/L | 
2 | O=[N+]([O-])c1cc([As](=O)(O)O)ccc1O [Roxarsone, 4-Hydroxy-3-nitrobenzenearsonic acid] |  |  | elevated (but 'very low') levels
